This is an account of results in paper PMC4154846, “Functional Characterization of Chemosensory Proteins in the Scarab Beetle, Holotrichia oblita Faldermann (Coleoptera: Scarabaeida)” (PLoS ONE, 2014).

Structures are written as SMILES. Where “and” joins values, the source holds several entries; their conditions need not be identical. Identical values can stand only once. Entries after “also recorded” stand apart in the source; their conditions may differ. Like-named read-outs stand apart in the source and are kept apart here.

Test [1] has as its target T1, HoblCSP1 (Holotrichia oblita, UniProt G9BWI4). The test is described as follows: Fluorescence binding of 1-NPN to HoblCSP1 (binding curve, Scatchard plot). The settings on record: 2 µM protein; 1-NPN 2∼24 µM; read-out: dissociation constant of CSP1/1-NPN. How it is done: (§1) Fluorescence binding assay was based on method previously described by Yin et al.. Briefly, fifty compounds (Sigma-Aldrich, Germany) with chemical purities ≥97% were tested in a Lengguang 970 CRT spectrofluorimeter (Shanghai Jingmi, China). Assuming the proteins were 100% active, the binding affinities for N-phenyl-1-naphthylamine (1-NPN) were determined by adding aliquots of 1-NPN into a 2 µM protein solution for final concentrations of 2∼24 µM. The dissociation constants of the binding competitors were calculated from IC50 according to Campanacci et al: Ki = [IC50]/(1+[1-NPN]/K(1-NPN)), where [1-NPN] represents the concentration of unbound 1-NPN and K(1-NPN) is the dissociation constant of 1-NPN [46]. Binding data for each ligand was collected from 3 measurements.
(§2) Figure 3 Fluorescence competition assay of the recombinant HoblCSP1 and HoblCSP2. (A) Binding curves of 1-NPN with HoblCSP1 and HoblCSP2 and their relative Scatchard plots. The dissociation constant of HoblCSP1 is 2.53 µM and that of HoblCSP2 is 2.93 µM. (B) Representative competitive binding curves of the recombinant HoblCSP1 to a series selected ligands (see Table 1). […] Fluorescence intensities are plotted as percent of the initial fluorescence in the absence of ligands. […]

The target of test [2] is T2, HoblCSP2 (Holotrichia oblita, UniProt G9BWQ6). The test is described as follows: Fluorescence binding of 1-NPN to HoblCSP2 (binding curve, Scatchard plot). To be noted: 2 µM protein; 1-NPN 2∼24 µM; read-out: dissociation constant of CSP2/1-NPN. How it is done:
as §1, §2

Test [3] has as its target T1, HoblCSP1. In words: Fluorescence competition assay with 1-NPN, recombinant HoblCSP1. The class given is binding. The settings on record: for binding affinity to HoblCSP1, in words: competition assay. The protocol: (§3) Fluorescence binding assay was based on method previously described by Yin et al.. Briefly, fifty compounds (Sigma-Aldrich, Germany) with chemical purities ≥97% were tested in a Lengguang 970 CRT spectrofluorimeter (Shanghai Jingmi, China). […] Binding data for each ligand was collected from 3 measurements.
(§4) Figure 3 Fluorescence competition assay of the recombinant HoblCSP1 and HoblCSP2. (A) Binding curves of 1-NPN with HoblCSP1 and HoblCSP2 and their relative Scatchard plots. […] (B) Representative competitive binding curves of the recombinant HoblCSP1 to a series selected ligands (see Table 1). All proteins used were diluted to a fixed concentration of 2 µM, while the concentration of 1-NPN varied with the respective dissociation constant of HoblCSPs/1-NPN. […] Fluorescence intensities are plotted as percent of the initial fluorescence in the absence of ligands. The molecular formulas of representative ligands are shown here as well.

Test [4] concerns the target T2, HoblCSP2. In words: Fluorescence competition assay with 1-NPN, recombinant HoblCSP2. The class given is binding. The settings on record: for binding affinity to HoblCSP2, in words: competition assay. The protocol: as §3, §4
In test [5] the test system is H.oblita antennae. Further details: method as in PMID 21852709. The settings on record: cited from earlier work.
Test [6] has as its system H.oblita. Further details: method as in earlier work. To be noted: cited from earlier work.
Test [7] has as its system AgamCSP3. Further details: method as in PMID 23599217. The settings on record: cited from earlier work.
[8] abbreviates: competition with 1-NPN, 2 µM protein, ligand 0–28 µM, Ki calculated from IC50, 3 measurements, read-out: HoblCSP1 Ki.
The mark [9] stands for this setting: competition with 1-NPN, 2 µM protein, ligand 0–28 µM, Ki calculated from IC50, 3 measurements, read-out: HoblCSP2 Ki.

T1 sequence (G9BWI4 entry or part of it): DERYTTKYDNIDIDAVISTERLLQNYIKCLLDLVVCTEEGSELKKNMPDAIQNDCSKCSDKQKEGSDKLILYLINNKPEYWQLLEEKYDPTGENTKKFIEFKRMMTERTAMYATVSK
T2 sequence (G9BWQ6 entry or part of it): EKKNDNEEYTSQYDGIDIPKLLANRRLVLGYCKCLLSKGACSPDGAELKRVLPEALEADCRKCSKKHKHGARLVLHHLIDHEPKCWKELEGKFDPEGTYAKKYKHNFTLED

Take `c1ccc(Nc2cccc3ccccc23)cc1` [1-NPN, N-phenyl-1-naphthylamine]: the Kd stood at 2.53 µM in test [1] and 2.93 µM in test [2].
As for `C=CC(O)CCCCC` (centres unmarked) [1-Octen-3-ol], the Ki in test [3] (setting [8]) was 48.1 µM.
On to `CCCCCCCCO` [1-octanol], for which the results for the Ki in test [3] (setting [8]) and in test [4] (setting [9]) were 35.9 µM and 40.6 µM, respectively.
Consider `CCCCC(CC)CO` (centres unmarked) [2-Ethy1-1-Hexanol], for which the inhibition constant Ki was 29.9 µM in test [3] (setting [8]) and 32.1 µM in test [4] (setting [9]).
With `CC(C)(C)C1CCC(O)CC1` (centres unmarked) [4-tert-butylcyclohexanol], the values for the Ki in test [3] (setting [8]) and in test [4] (setting [9]) were 34.6 µM and 50.7 µM, respectively.
On to `CC(=O)CCC=C(C)C` [6-Methyl-5-hepten-2-one], for which, in test [4], the Ki is 56.9 µM and the “binding affinity to HoblCSP2, in words” value is “higher affinities”.
`CCOC(=O)CN` [Glycine ethyl ester]: in test [3], the “binding affinity to HoblCSP1, in words” value is “limited affinities”. The Ki in test [3] (setting [8]) was 43.5 µM; in test [4] (setting [9]), 39.5 µM. The “binding affinity to HoblCSP2, in words” value in test [4] was “limited affinities”.
With `CC[C@H](C)[C@H](N)C(=O)OC` [L-Isoleucine methyl este], the “binding affinity to HoblCSP1, in words” value in test [3] is given as “limited affinities”. The “binding affinity to HoblCSP2, in words” value in test [4] is “limited affinities”.
`COC(=O)[C@@H]1CCCN1` [L-Proline methyl ester]: the “binding affinity to HoblCSP1, in words” value in test [3] is recorded as “limited affinities”. In addition, the Ki in test [3] (setting [8]) is 57 µM. Moreover, the “binding affinity to HoblCSP2, in words” value in test [4] is listed as “limited affinities”.
Turning to `COc1ccccc1` [anisole], the results for the inhibition constant (Ki) in test [3] (setting [8]) and in test [4] (setting [9]) were 28.4 µM and 29.5 µM, respectively.
For the molecule `O=Cc1ccccc1` [benzaldehyde], in test [3], the Ki was found to be 23.3 µM and the “binding affinity to HoblCSP1, in words” value is listed as “medium affinities”. For the same molecule, in test [4], the Ki worked out at 19.5 µM and the “binding affinity to HoblCSP2, in words” value is “medium affinities”.
In the case of `OCc1ccccc1` [benzyl alcohol], the values for the Ki in test [3] and in test [4] were 34.9 µM and 54.8 µM, respectively.
Turning to `C=C1C2CCC(C2)C1(C)C` (centres unmarked) [camphene], the “binding affinity to HoblCSP1, in words” value in test [3] is on record as “able to bind camphene, albeit with a high Ki value”. Also, the inhibitory constant (Ki) in test [3] (setting [8]) is 37.9 µM. Further, in test [4], the “binding affinity to HoblCSP2, in words” value is on record as “could not bind camphene at all”.
`O=C/C=C/c1ccccc1` [cinnamaldehyde]: in test [3], the Ki came to 20.5 µM and the “binding affinity to HoblCSP1, in words” value is reported as “highest affinities”. Besides, in test [4], the Ki amounted to 17.5 µM and the “binding affinity to HoblCSP2, in words” value is “highest affinities”. Also, in test [5], the “electrophysiological response in H.oblita antennae (EAG)” value is “strong electrophysiological responses”. In addition, the “attraction to H.oblita” value in test [6] is listed as “great attraction”.
As for `CC/C=C\CCO` [cis-3-hexen-1-ol], the Ki in test [3] (read-out: HoblCSP1 Ki, competition with 1-NPN, 2 µM protein, ligand 0–28 µM, Ki calculated from IC50, 3 measurements) was 46.9 µM; in test [4] (read-out: HoblCSP2 Ki, competition with 1-NPN, 2 µM protein, ligand 0–28 µM, Ki calculated from IC50, 3 measurements), 47.8 µM and 35.7 µM. Also, the “binding affinity to HoblCSP2, in words” value in test [4] was “higher affinities”.
As for `CC(C)=CCC[C@@H](C)CC=O` [citronellal], the “best ligands for AgamCSP3” value in test [7] is recorded as “best ligands”.
For `COC(=O)c1ccccc1C(=O)OC` [dimererhyl phthalate], the “binding affinity to HoblCSP1, in words” value in test [3] is “higher affinities”. Further, in test [3] (setting [8]), the Ki was 22.3 µM.
In the case of `C=CCc1ccc(O)c(OC)c1` [eugenol], in test [3], the inhibition constant Ki turned out to be 30 µM and the “binding affinity to HoblCSP1, in words” value is listed as “higher affinities”.
For `CC(C)=CCC/C(C)=C/CO` [geraniol], in test [3], the inhibitory constant (Ki) is 29.5 µM and the “binding affinity to HoblCSP1, in words” value is on record as “medium affinities”. In addition, in test [4], the inhibition constant Ki was found to be 30.2 µM and the “binding affinity to HoblCSP2, in words” value was “medium affinities”.
Consider `CCCCCCO` [hexanol], for which the Ki in test [3] (setting [8]) was 57.6 µM; in test [4] (setting [9]) it was 60.5 µM.
With `COC(=O)c1ccccc1O` [methyl salicylate], in test [3], the Ki came out at 47.3 µM and the “binding affinity to HoblCSP1, in words” value is recorded as “higher affinities”.
In the case of `C=CC(=C)CCC=C(C)C` [myrcene], the “binding affinity to HoblCSP1, in words” value in test [3] is given as “medium affinities”. The Ki in test [3] (setting [8]) was 25.4 µM; in test [4] (setting [9]), 29.5 µM. Besides, in test [4], the “binding affinity to HoblCSP2, in words” value is listed as “medium affinities”.
In the case of `CCCCCCCCC=O` [nonanal], the “best ligands for AgamCSP3” value in test [7] is given as “best ligands”.
For `CC1=C(/C=C/C(C)=C/C=C/C(C)=C/C=O)C(C)(C)CCC1` [retinal], the “best ligands for AgamCSP3” value in test [7] is given as “best ligands”.
On to `CCC/C=C/C=O` [trans-2-hexenal], for which, in test [3], the inhibition constant Ki came to 24.9 µM and the “binding affinity to HoblCSP1, in words” value is given as “medium affinities”. In test [4], the Ki was 25.7 µM and the “binding affinity to HoblCSP2, in words” value is on record as “medium affinities”.
For `CC1=CC[C@@H](C(C)(C)O)CC1` [α -terpineol], the inhibition constant Ki in test [3] (setting [8]) is 46.8 µM; in test [4] (setting [9]) it was 39.4 µM.
On to `CC(=O)/C=C/C1C(C)=CCCC1(C)C` (stereo not drawn) [α-ionone], for which, in test [3], the Ki is 10.5 µM and the “binding affinity to HoblCSP1, in words” value is “highest affinities”. Besides, in test [4], the inhibition constant (Ki) is 11.5 µM and the “binding affinity to HoblCSP2, in words” value was “highest affinities”. In addition, the “electrophysiological response in H.oblita antennae (EAG)” value in test [5] is on record as “strong electrophysiological responses”.
Turning to `CC(=O)/C=C/C1=C(C)CCCC1(C)C` [β-ionone], in test [3], the inhibition constant (Ki) was 4.3 µM and the “binding affinity to HoblCSP1, in words” value was “bound most strongly; also recorded: highest affinities; also recorded: best ligand”. For the same molecule, in test [4], the inhibitory constant (Ki) amounted to 4.47 µM and the “binding affinity to HoblCSP2, in words” value was “bound most strongly; also recorded: highest affinities”.

The term Ki denotes the dissociation constant of the complex between target and ligand, obtained from inhibition or displacement.
